“And” between values parts separate entries of the source, which are not always exact repeats. Identical values can stand only once. Inconclusive results and toxic doses are left out.

The test system of the experiment is L1210 leukemia ip in BDF1 mice, survival T/C. The experiment in a line: NCI In Vivo Anticancer Drug Screen. Data for tumor model L1210 Leukemia (intraperitoneal) in B6D2F1 (BDF1) mice. The note with it: endpoint: mean survival time, higher = longer survival. The method in brief: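 Mice bearing the transplanted tumor received compound or vehicle. Survival of the treated group was divided by that of the vehicle-treated control group to give the ratio.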

Setting [1] is: dose: 100.0 mg/kg/injection, schedule: Q01DX009 (ip), vehicle: saline with Tween-80.
Setting [2] is: dose: 100.0 mg/kg/injection, schedule: Q04DX003 (ip), vehicle: saline with Tween-80.
The mark [3] stands for this setting: dose: 200.0 mg/kg/injection, schedule: Q01DX009 (ip), vehicle: saline with Tween-80.
Setting [4] is: dose: 200.0 mg/kg/injection, schedule: Q04DX003 (ip), vehicle: saline with Tween-80.
Setting [5] is: dose: 400.0 mg/kg/injection, schedule: Q01DX009 (ip), vehicle: saline with Tween-80.
Setting [6] is: dose: 400.0 mg/kg/injection, schedule: Q04DX003 (ip), vehicle: saline with Tween-80.

`C=CCc1ccc(OC(=O)Nc2ccc(S(=O)(=O)CC)cc2)c(OC)c1`: the T/C runs as follows: (dose: 100.0 mg/kg/injection, schedule: Q01DX001 (ip), vehicle: carboxymethylcellulose (CMC)) 90 % of control; (dose: 200.0 mg/kg/injection, schedule: Q01DX001 (ip), vehicle: carboxymethylcellulose (CMC)) 93 % of control; (dose: 400.0 mg/kg/injection, schedule: Q01DX001 (ip), vehicle: carboxymethylcellulose (CMC)) 93 % of control.

Take `C[Si](C)(O)CCl`: the T/C (dose: 75.0 mg/kg/injection, schedule: Q01DX001 (ip), vehicle: saline) was 102 % of control.

With `COC(=O)C1CCC2c3ccccc3C(C1)c1ccccc12` (centres undefined), the T/C is 97 % of control under setting [1]; 101 % of control under setting [2]; 95 % of control under setting [3]; 95 % of control under setting [4]; 94 % of control under setting [5]; 93 % of control under setting [6].

With `Nc1ccn(C2OC(CO)C(O)C(O)C2N)c(=O)n1` (centres undefined), the T/C reads like this: (dose: 100.0 mg/kg/injection, schedule: Q01DX001 (ip), vehicle: saline) 97 % of control; (dose: 200.0 mg/kg/injection, schedule: Q01DX001 (ip), vehicle: saline) 103 % of control; (dose: 400.0 mg/kg/injection, schedule: Q01DX001 (ip), vehicle: saline) 100 % of control.

`Cc1ccc(S(=O)(=O)Nc2ccc(C#N)c3ccccc23)cc1`: the T/C under setting [1] was 92 % of control; the T/C under setting [2] was 90 % of control; the T/C under setting [3] is 89 % of control; the T/C under setting [4] is 95 % of control; the T/C under setting [5] is 89 % of control; the T/C under setting [6] was 87 % of control.

As for `C=CCc1ccc(OC(=O)Nc2ccc(SC)cc2)c(OC)c1`, the T/C reads like this: (dose: 50.0 mg/kg/injection, schedule: Q01DX009 (ip), vehicle: saline with Tween-80) 95 % of control and 87 % of control; (dose: 100.0 mg/kg/injection, schedule: Q01DX001 (ip), vehicle: saline with Tween-80) 101 % of control; (dose: 100.0 mg/kg/injection, schedule: Q04DX002 (ip), vehicle: saline with Tween-80) 90 % of control and 91 % of control; under setting [2], 94 % of control; (dose: 200.0 mg/kg/injection, schedule: Q01DX001 (ip), vehicle: saline with Tween-80) 98 % of control; (dose: 200.0 mg/kg/injection, schedule: Q04DX002 (ip), vehicle: saline with Tween-80) 93 % of control and 100 % of control. Further, the T/C reads like this: under setting [4], 91 % of control; (dose: 400.0 mg/kg/injection, schedule: Q01DX001 (ip), vehicle: saline with Tween-80) 97 % of control; under setting [5], 99 % of control and 89 % of control; (dose: 400.0 mg/kg/injection, schedule: Q04DX002 (ip), vehicle: saline with Tween-80) 94 % of control and 88 % of control; under setting [6], 96 % of control.

Consider `CC(=O)NC(CCC(=O)C=[N+]=N)C(=O)O` (centres undefined), for which the T/C was 98 % of control and 100 % of control and 101 % of control (dose: 0.1 mg/kg/injection, schedule: Q01DX009 (ip), vehicle: other); 105 % of control and 116 % of control (2×) (dose: 0.2 mg/kg/injection, schedule: Q01DX009 (ip), vehicle: other); 108 % of control (dose: 0.2 mg/kg/injection, schedule: Q01DX015 (ip), vehicle: saline); 106 % of control (dose: 0.4 mg/kg/injection, schedule: Q01DX001 (ip), vehicle: saline); 100 % of control (dose: 0.4 mg/kg/injection, schedule: Q01DX009 (ip), vehicle: other); 120 % of control (dose: 0.4 mg/kg/injection, schedule: Q01DX015 (ip), vehicle: saline). In addition, the T/C was 109 % of control (dose: 0.5 mg/kg/injection, schedule: Q01DX001 (ip), vehicle: other); 113 % of control (dose: 0.5 mg/kg/injection, schedule: Q01DX001 (ip), vehicle: saline); 113 % of control (dose: 0.5 mg/kg/injection, schedule: Q04DX003 (ip), vehicle: other); 106 % of control (dose: 0.5 mg/kg/injection, schedule: Q08DX002 (ip), vehicle: other); 110 % of control (dose: 0.6 mg/kg/injection, schedule: Q01DX001 (ip), vehicle: saline); 123 % of control (dose: 0.6 mg/kg/injection, schedule: Q01DX015 (ip), vehicle: saline). Further, the T/C (dose: 0.8 mg/kg/injection, schedule: Q01DX009 (ip), vehicle: other) is 119 % of control; the T/C (dose: 1.0 mg/kg/injection, schedule: Q01DX001 (ip), vehicle: other) is 106 % of control; the T/C (dose: 1.0 mg/kg/injection, schedule: Q01DX009 (ip), vehicle: other) was 122 % of control; the T/C (dose: 1.0 mg/kg/injection, schedule: Q01DX015 (ip), vehicle: saline) was 121 % of control; the T/C (dose: 1.0 mg/kg/injection, schedule: Q04DX003 (ip), vehicle: other) was 120 % of control; the T/C (dose: 1.0 mg/kg/injection, schedule: Q08DX002 (ip), vehicle: other) was 109 % of control. In addition, the T/C (dose: 1.5 mg/kg/injection, schedule: Q01DX001 (ip), vehicle: saline) is 114 % of control; the T/C (dose: 2.0 mg/kg/injection, schedule: Q01DX001 (ip), vehicle: other) was 111 % of control; the T/C (dose: 2.0 mg/kg/injection, schedule: Q01DX001 (ip), vehicle: saline) was 122 % of control; the T/C (dose: 2.0 mg/kg/injection, schedule: Q01DX009 (ip), vehicle: other) is 96 % of control; the T/C (dose: 2.0 mg/kg/injection, schedule: Q04DX003 (ip), vehicle: other) is 120 % of control; the T/C (dose: 2.0 mg/kg/injection, schedule: Q08DX002 (ip), vehicle: other) is 111 % of control. Also, the T/C runs as follows: (dose: 4.0 mg/kg/injection, schedule: Q01DX001 (ip), vehicle: saline) 112 % of control; (dose: 4.0 mg/kg/injection, schedule: Q04DX003 (ip), vehicle: other) 117 % of control; (dose: 5.0 mg/kg/injection, schedule: Q01DX001 (ip), vehicle: other) 111 % of control; (dose: 5.0 mg/kg/injection, schedule: Q03HX008 (ip), vehicle: other) 117 % of control; (dose: 5.0 mg/kg/injection, schedule: Q03HX024 (ip), vehicle: other) 150 % of control; (dose: 5.0 mg/kg/injection, schedule: Q08DX002 (ip), vehicle: other) 121 % of control. Moreover, the T/C runs as follows: (dose: 10.0 mg/kg/injection, schedule: Q01DX001 (ip), vehicle: other) 122 % of control; (dose: 10.0 mg/kg/injection, schedule: Q03HX008 (ip), vehicle: other) 118 % of control; (dose: 10.0 mg/kg/injection, schedule: Q03HX024 (ip), vehicle: other) 187 % of control; (dose: 16.0 mg/kg/injection, schedule: Q01DX001 (ip), vehicle: saline) 117 % of control; (dose: 20.0 mg/kg/injection, schedule: Q03HX008 (ip), vehicle: other) 110 % of control; (dose: 20.0 mg/kg/injection, schedule: Q03HX024 (ip), vehicle: other) 172 % of control. The T/C reads like this: (dose: 32.0 mg/kg/injection, schedule: Q01DX001 (ip), vehicle: saline) 118 % of control; (dose: 40.0 mg/kg/injection, schedule: Q03HX008 (ip), vehicle: other) 121 % of control; (dose: 40.0 mg/kg/injection, schedule: Q03HX016 (ip), vehicle: other) 150 % of control; (dose: 40.0 mg/kg/injection, schedule: Q03HX024 (ip), vehicle: other) 112 % of control.

For the molecule `CCC(C1=CCCCC1)c1nc2c([nH]1)c(=O)n(C)c(=O)n2C` (centres undefined), the T/C reads like this: (dose: 50.0 mg/kg/injection, schedule: Q01DX001 (ip), vehicle: other) 101 % of control; (dose: 100.0 mg/kg/injection, schedule: Q01DX001 (ip), vehicle: other) 90 % of control; (dose: 200.0 mg/kg/injection, schedule: Q01DX001 (ip), vehicle: other) 90 % of control; (dose: 400.0 mg/kg/injection, schedule: Q01DX001 (ip), vehicle: other) 97 % of control.

For `C/C(=C\c1ccccc1Cl)[N+](=O)[O-]`, the T/C runs as follows: (dose: 100.0 mg/kg/injection, schedule: Q01DX009 (ip), vehicle: Klucel (hydroxypropylcellulose) (HPC)) 95 % of control; (dose: 100.0 mg/kg/injection, schedule: Q04DX003 (ip), vehicle: Klucel (hydroxypropylcellulose) (HPC)) 100 % of control; (dose: 200.0 mg/kg/injection, schedule: Q01DX009 (ip), vehicle: Klucel (hydroxypropylcellulose) (HPC)) 93 % of control; (dose: 200.0 mg/kg/injection, schedule: Q04DX003 (ip), vehicle: Klucel (hydroxypropylcellulose) (HPC)) 96 % of control; (dose: 400.0 mg/kg/injection, schedule: Q04DX003 (ip), vehicle: Klucel (hydroxypropylcellulose) (HPC)) 105 % of control.

The record behind these values is PubChem BioAssay AID248 (DTP/NCI, 2004).
